Laboratory results published in ChEMBL document CHEMBL1201862, “PubChem BioAssay data set” (2004).
Activity calls are given as the source filed them.

How the values were obtained:
[1] = tested on: Streptococcus sp. 'group A'; test: Streptococcus pyogenes SK(-)GAS viability under kanamycin – luminescence, BacTiterGlo, confirmation, counter-screen for streptokinase expression inhibitor project, dose response (AID 1900); format: functional, organism-based
Streptokinase A = target: T1, Streptokinase A (Streptococcus pyogenes serotype M1, UniProt P10520); test: viability-normalized secreted streptokinase activity reduction – plasminogen activation absorbance, OD405, dose response (AID 1914); format: functional, Streptococcus pyogenes M1 GAS;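 note: secreted streptokinase activity via plasminogen activation per viability signal from cell pellet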
T1 sequence (P10520 whole entry): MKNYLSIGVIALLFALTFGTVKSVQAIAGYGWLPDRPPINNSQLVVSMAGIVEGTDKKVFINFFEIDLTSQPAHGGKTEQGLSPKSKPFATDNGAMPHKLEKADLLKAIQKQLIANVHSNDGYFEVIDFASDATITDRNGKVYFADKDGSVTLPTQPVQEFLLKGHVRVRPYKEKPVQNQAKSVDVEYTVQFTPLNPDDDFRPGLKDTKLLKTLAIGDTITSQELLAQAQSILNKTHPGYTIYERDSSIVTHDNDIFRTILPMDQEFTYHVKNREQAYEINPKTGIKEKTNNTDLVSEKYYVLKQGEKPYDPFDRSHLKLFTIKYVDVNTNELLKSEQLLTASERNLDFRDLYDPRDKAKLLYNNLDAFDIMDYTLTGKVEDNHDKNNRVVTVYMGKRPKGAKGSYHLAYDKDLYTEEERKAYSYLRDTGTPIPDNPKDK

Ion channel NompC = Ion channel NompC (Danio rerio, UniProt Q7T1G6); test: Dose response cell-based high-throughput screening assay for agonists of the transient receptor potential channel N1 (TRPN1). [Related pubchem assays (depositor defined):AID1424, AID1448]; format: functional
[2] = CCR5-tropic HIV-1 fusion blockers – cell-based, CCR5-tropic Env, dose response (AID 2279); format: functional
Mucolipin-3 = target: T2, Mucolipin-3 (Homo sapiens, UniProt Q8TDD5); test: Fluorescence counterscreen assay for […] agonists: dose response cell-based high-throughput screening assay to identify agonists of the transient receptor potential channel ML3 (TRPML3). [Related pubchem assays: 1424, 1448 ]; format: functional
T2 sequence (Q8TDD5 whole entry): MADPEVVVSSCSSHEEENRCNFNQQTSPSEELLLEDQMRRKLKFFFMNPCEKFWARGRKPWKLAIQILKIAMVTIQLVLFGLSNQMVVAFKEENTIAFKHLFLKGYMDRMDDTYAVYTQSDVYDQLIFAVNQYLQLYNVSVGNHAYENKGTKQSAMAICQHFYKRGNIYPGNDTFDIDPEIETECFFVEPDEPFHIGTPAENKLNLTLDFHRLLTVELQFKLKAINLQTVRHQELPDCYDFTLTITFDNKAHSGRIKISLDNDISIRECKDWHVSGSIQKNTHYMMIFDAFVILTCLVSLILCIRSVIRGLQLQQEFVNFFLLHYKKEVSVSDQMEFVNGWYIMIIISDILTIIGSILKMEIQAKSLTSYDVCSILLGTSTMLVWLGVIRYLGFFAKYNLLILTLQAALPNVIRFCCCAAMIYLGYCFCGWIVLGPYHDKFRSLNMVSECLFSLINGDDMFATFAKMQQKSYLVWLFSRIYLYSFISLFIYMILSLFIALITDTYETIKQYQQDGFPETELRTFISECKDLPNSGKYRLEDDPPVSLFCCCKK

Streptococcus = test: GAS UMAA2166 growth inhibition – luminescence, BacTiterGlo, counter-screen for streptokinase expression inhibitor project, dose response (AID 1915); format: functional, organism-based;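 note: potency for reduction of bacterial viability or growth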
[3] = Luminescence Cell-Based Dose Retest to Confirm Inhibitors of Cancer Stem Cells. [Related pubchem assays (depositor defined):AID2717, AID2721]; format: functional; details: Homo sapiens
[4] = reduction of Shn3 3'UTR-driven luciferase in osteoblasts – cell-based, Clone20 osteoblasts, firefly luciferase, cherry-picked, dose response (AID 624132); format: functional;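 note: firefly luciferase luminescence from reporter carrying the Shn3 3'UTR in osteoblasts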
[5] = loss of viability in HepG2 cells – cell-based, CellTiter-Glo, cherry-picked, cytotoxicity control for Shn3 inhibitor project, dose response (AID 624134); format: functional
[6] = non-specific 3'UTR reporter inhibition in Clone20-Shn3RL – cell-based, Renilla luciferase, cherry-picked, counter-screen for Shn3 inhibitor project, dose response (AID 624133); format: functional
Bcl-2-related protein A1 = target: T3, Bcl-2-related protein A1 (Mus musculus, UniProt Q07440); format: functional;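 note: confirmatory dose–response counterscreen on Bfl-1, used to check hits from a UBC13 polyubiquitin inhibitor campaign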
T3 sequence (Q07440 whole entry): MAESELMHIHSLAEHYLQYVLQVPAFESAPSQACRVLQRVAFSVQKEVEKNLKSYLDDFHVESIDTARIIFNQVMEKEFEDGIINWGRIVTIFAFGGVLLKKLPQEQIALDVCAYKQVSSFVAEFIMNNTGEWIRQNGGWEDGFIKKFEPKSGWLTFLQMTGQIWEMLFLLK

[7] = target: T4, Ubiquitin-conjugating enzyme E2 N (Homo sapiens, UniProt P61088); format: functional
T4 sequence (P61088 whole entry): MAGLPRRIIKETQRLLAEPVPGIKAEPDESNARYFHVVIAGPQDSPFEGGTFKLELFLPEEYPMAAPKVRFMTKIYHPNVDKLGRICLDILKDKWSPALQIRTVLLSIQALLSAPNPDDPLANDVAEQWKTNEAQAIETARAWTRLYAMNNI

[8] = target: T4, Ubiquitin-conjugating enzyme E2 N; format: functional; remark: listed apart in the source
[9] = target: Mannose-6-phosphate isomerase (Homo sapiens, UniProt P34949); test: MPI inhibition at elevated mannose 6-phosphate – biochemical, fluorescence intensity, high mannose 6-phosphate, primary screen (AID 1220)
[10] = target: Alkaline phosphatase, placental type (Homo sapiens, UniProt P05187); test: human placental alkaline phosphatase inhibition – biochemical, luminescence, confirmation (AID 1512); format: functional
[11] = target: T5, Alkaline phosphatase, tissue-nonspecific isozyme (Homo sapiens, UniProt P05186); test: potency against alkaline phosphatase TNAP – biochemical, luminescent, dose response, SAR follow-up (AID 1056)
T5 sequence (P05186 whole entry): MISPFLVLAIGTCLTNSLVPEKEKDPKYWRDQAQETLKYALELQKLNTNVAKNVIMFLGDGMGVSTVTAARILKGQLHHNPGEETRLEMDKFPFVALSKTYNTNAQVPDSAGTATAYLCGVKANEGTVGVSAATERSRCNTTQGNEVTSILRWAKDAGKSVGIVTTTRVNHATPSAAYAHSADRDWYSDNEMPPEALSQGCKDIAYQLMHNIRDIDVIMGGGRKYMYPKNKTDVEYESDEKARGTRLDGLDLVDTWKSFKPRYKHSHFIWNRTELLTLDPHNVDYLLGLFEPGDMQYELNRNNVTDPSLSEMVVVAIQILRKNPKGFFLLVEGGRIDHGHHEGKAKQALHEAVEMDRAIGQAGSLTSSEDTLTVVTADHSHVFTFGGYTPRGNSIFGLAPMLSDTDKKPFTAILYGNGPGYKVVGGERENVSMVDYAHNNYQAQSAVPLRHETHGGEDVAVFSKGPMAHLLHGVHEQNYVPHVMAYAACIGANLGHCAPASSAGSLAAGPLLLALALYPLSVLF

[12] = target: G-protein coupled receptor 55 (Homo sapiens, UniProt Q9Y2T6); test: blockers of GPR55 signalling, imaged – imaging, image-based, counter-screen for GPR35 antagonist project, SAR follow-up (AID 2397); format: functional
[13] = target: T6, Replicative DNA helicase DnaB (Mycobacterium tuberculosis, UniProt P9WMR3); test: DnaB intein splicing inhibitors, dose response, biochemical, cell-free fluorescence (AID 449749); format: functional
T6 sequence (P9WMR3 whole entry): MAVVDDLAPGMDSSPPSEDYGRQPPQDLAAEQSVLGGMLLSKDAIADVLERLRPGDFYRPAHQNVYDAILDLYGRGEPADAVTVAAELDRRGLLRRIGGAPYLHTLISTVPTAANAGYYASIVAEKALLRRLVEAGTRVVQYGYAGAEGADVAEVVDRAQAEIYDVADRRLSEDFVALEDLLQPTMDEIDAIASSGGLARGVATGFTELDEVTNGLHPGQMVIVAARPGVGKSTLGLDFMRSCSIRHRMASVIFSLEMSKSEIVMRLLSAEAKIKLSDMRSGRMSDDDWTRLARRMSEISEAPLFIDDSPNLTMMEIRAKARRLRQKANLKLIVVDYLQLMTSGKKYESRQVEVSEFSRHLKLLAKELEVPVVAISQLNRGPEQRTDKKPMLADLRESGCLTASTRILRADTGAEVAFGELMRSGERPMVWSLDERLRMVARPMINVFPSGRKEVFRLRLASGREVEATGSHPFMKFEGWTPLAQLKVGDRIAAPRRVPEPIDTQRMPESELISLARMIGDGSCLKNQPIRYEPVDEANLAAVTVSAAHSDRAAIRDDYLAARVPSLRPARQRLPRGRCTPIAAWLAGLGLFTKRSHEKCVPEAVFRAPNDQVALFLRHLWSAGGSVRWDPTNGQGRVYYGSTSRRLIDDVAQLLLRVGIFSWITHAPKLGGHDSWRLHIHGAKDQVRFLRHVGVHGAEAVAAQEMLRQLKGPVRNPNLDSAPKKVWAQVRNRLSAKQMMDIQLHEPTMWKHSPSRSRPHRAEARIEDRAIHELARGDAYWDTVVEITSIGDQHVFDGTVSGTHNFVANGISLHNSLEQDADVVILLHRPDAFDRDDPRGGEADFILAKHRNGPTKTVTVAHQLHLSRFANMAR

Protein RecA = target: T7, Protein RecA (Mycobacterium tuberculosis, UniProt P9WHJ3); test: Fluorescence Cell-Free Homogeneous Dose Retest to Identify Inhibitors of RecA-Intein Splicing Activity. [Related pubchem assays (depositor defined):AID2097, AID2223, AID489010, AID492950]; format: functional
T7 sequence (P9WHJ3 whole entry): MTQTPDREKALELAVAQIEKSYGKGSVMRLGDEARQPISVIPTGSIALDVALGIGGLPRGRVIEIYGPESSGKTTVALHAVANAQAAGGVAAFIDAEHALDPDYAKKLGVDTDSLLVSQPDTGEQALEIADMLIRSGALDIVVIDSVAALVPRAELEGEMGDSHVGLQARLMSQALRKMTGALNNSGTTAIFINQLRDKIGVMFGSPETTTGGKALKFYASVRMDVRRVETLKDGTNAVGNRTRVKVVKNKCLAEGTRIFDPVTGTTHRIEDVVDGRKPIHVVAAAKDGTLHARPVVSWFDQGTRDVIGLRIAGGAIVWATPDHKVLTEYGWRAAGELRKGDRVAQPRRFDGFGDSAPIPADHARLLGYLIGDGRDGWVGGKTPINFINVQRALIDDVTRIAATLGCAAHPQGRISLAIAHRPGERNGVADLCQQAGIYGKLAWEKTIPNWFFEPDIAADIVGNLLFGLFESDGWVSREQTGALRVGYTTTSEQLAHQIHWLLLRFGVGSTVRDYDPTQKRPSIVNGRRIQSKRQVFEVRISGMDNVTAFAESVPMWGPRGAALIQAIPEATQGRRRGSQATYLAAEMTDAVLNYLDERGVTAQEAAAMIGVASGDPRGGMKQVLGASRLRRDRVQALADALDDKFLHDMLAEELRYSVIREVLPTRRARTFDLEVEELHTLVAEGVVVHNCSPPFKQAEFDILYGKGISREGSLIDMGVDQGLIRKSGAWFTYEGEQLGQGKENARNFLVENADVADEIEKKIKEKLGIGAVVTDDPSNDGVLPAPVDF

[14] = decrease of insulin promoter-GFP reporter – imaging, high-content screening, mouse beta cells (AID 1628); format: functional; details: MIN6
cells [15] = format: functional, cell-based
[16] = MIN6 cell viability loss – mouse insulinoma, cytotoxicity control, dose response (AID 2122); format: functional;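 note: confirmatory high-throughput counterscreen run to flag cytotoxic compounds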
[17] = Trypanosoma cruzi growth suppression in host cells – NIH3T3 host cells, beta-gal luminescence, confirmation (AID 2044); format: functional, cell-based;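 note: intracellular parasites grown in NIH/3T3 mouse fibroblasts as host cells; luminescent beta-galactosidase reporter signal from transgenic T. cruzi replicating inside host cells; inhibitors lower the luminescence signal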
cells [18] = format: functional, cell-based; remark: listed apart in the source
Troponin, cardiac muscle = Troponin, cardiac muscle (Homo sapiens, UniProt P19429+P45379+P63316); test: Fluorescence-based biochemical high throughput dose response assay for activators of the calcium sensitivity of cardiac Regulated Thin Filaments (RTF). [Related pubchem assays (depositor defined):AID493008, AID493018, AID504382, AID504383]; format: protein-complex assay
[19] = THP-1 cell cytotoxicity, dose response, cytotoxicity control for non-replicating M. tuberculosis project (AID 489025); format: functional
[20] = Vero E6 cell cytotoxicity, dose response, cytotoxicity control for non-replicating M. tuberculosis project, secondary assay (AID 492998); format: functional, VeroE6; details: Vero C1008
[21] = target: Microphthalmia-associated transcription factor (Homo sapiens, UniProt O75030); test: reducers of TRPM1 reporter luminescence, concentration series – cell-based, SK-MEL-5, cherry-picked, set 3, MITF inhibitor project, dose response (AID 493073); format: functional;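 note: SK-MEL-5 melanoma cells with luciferase driven by the MITF target TRPM1 promoter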
cells [22] = format: functional

## O=C(Nc1ccccc1Cc1ccccc1)c1ccccc1NS(=O)(=O)c1ccc(Cl)s1
[1]
  EC50: 0.659 µM (active)
Streptokinase A
  EC50: > 150 µM (not active)
Ion channel NompC
  EC50: > 29.9 µM (inactive)
[2]
  IC50: 2.17 µM (active)
Mucolipin-3
  EC50: 24.3 µM (not active)
Streptococcus
  EC50: 4.09 µM (active)
[3]
  AC50: 0.706 µM (active)
[4]
  AC50: 8.18 µM (active)
[5]
  AC50: 14.7 µM (active)
[6]
  AC50: 18.2 µM (active)

## COc1ccccc1NC(=O)COc1ccc(C(=O)NCc2ccccc2)cc1OC
Bcl-2-related protein A1
  IC50: > 20 µM (inactive)
[7]
  IC50: 13 µM (active)
[8]
  IC50: > 20 µM (inactive)

## COC(=O)C(N)Cc1ccc(O)c(O)c1 (stereo unspecified)
[9]
  IC50: > 50 µM (not active)
[10]
  IC50: 8.43 µM (active)
[11]
  IC50: > 100 µM (inactive)

## O=C(CCCN1C(=O)/C(=C\c2ccccc2)SC1=S)Nc1ccc(O)cc1
[12]
  IC50: > 32 µM (inactive)
[13]
  AC50: 39 µM (active)
Protein RecA
  EC50: 27.8 µM (active)

## COc1cc(C(=O)Oc2ccccc2/C=N/NC(=O)c2ccc(Cl)cc2)cc(OC)c1OC
[14]
  IC50: 2.12 µM (active)
Cells [15]
  EC50: 9.29 µM (active)
[16]
  IC50: 1.99 µM (active)
[17]
  EC50: 1.31 µM (active)
Cells [18]
  EC50: > 350 µM (not active)
Troponin, cardiac muscle
  EC50: > 71.5 µM (inactive)

## Cc1ccc(C(=O)N/N=C\c2ccc([N+](=O)[O-])s2)cn1
[19]
  CC50: 26.2 µM (active)
[20]
  CC50: 13.1 µM (active)
[21]
  AC50: 2.95 µM (active)
Cells [22]
  IC50: 4.87 µM (active)

## N#C/C(=C\c1ccccn1)c1nc2ccccc2s1
Ion channel NompC
  EC50: 0.672 µM (active)
Mucolipin-3
  EC50: > 1.11 µM (not active)
